Test results taken from patent publication US11654097B2, “Peptide having activities of skin whitening and uses thereof” (CAREGEN CO., LTD., priority 2019, dated 2023).

Tests used:
tyrosinase [1] = target: T1, tyrosinase (Mus musculus, UniProt P11344); assay: Inhibitory effect on tyrosinase activity in lysate of treated B16F10 cells (L-DOPA); type: cell-based; conditions: B16F10, 200 ng/ml α-MSH, peptide 1-160 μM, 72 hours, absorbance at 475 nm
T1 construct: The cells were lysed by adding a 0.1 M sodium phosphate buffer (pH 6.8, lysis buffer) containing 1% triton X-100; endogenous in cells; host or cells: B16F10 mouse melanoma cells stimulated with alpha-MSH
T1 sequence (P11344 19-533): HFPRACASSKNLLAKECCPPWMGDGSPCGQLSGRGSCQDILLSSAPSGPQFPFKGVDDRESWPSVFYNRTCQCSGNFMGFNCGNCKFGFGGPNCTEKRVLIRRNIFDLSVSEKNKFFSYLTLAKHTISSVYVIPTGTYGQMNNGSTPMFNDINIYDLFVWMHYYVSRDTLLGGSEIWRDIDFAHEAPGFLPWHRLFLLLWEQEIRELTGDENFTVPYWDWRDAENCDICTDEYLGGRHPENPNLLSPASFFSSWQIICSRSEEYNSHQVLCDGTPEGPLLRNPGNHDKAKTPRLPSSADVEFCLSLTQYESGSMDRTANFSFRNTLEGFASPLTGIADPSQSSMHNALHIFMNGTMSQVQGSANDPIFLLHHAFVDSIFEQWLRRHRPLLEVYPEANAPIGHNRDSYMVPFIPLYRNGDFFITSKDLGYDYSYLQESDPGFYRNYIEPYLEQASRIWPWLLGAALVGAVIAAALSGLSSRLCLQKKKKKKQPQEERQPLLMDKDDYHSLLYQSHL
Method: A mouse melanoma cell B16F10 was seeded in a 6-well plate at a density of 5×10^4 cells/well, followed by incubation for 16 hours. Thereafter, the culture medium was replaced by a medium supplemented with 2% serum, and then 200 ng/ml of α-MSH was added thereto, together with each peptide of an amino acid sequence of SEQ ID NO: 1, 2, or 3 at a concentration of 1 μM, 10 μM, 20 μM, 40 μM, 60 μM, 80 μM or 160 μM, respectively, followed by incubation for 72 hours. The 6-well plate was placed on ice, and then washed with cold PBS. The cells were lysed by adding a 0.1 M sodium phosphate buffer (pH 6.8, lysis buffer) containing 1% triton X-100. Thereafter, the cells in the well plate were scraped, and collected in a 1.5 ml tube, followed by vortexing. Centrifugation was carried out at 15,000 rpm for 10 minutes to obtain a supernatant. Thereafter, proteins in the supernatant was quantified to adjust the protein content at a predetermined amount. A buffer was added thereto, and total 90 μl of the sample was dispensed in a 96-well plate.
Thereafter, 20 μL of 10 mM L-DOPA was added to each sample, and incubated at 37° C. for 1 hour. Then, absorbance at 475 nm was measured. In addition, an untreated group (Con) was used as a control, and only α-MSH-treated group as a negative control and Arbutin (200 μM or 500 μM) and α-MSH-treated group as a positive control were used.

MITF [2] = assay: Expression of melanin production-associated protein (Western blotting) in B16F10 cells; type: cell-based, mouse; conditions: B16F10, 200 ng/ml α-MSH, peptide 10-200 μM, 72 hours
Method: (§1) A mouse melanoma cell B16F10 was seeded in a 6-well plate at a density of 5×10^4 cells/well, followed by incubation for 16 hours. Thereafter, the culture medium was replaced by a medium supplemented with 2% serum, and then 200 ng/ml of α-MSH was added thereto, together with each peptide of an amino acid sequence of SEQ ID NO: 1, 2, or 3 at a concentration of 10 μM, 50 μM, 100 μM, or 200 μM, respectively, followed by incubation for 72 hours. Thereafter, the cultured cells were lysed, and then subjected to Western blotting using antibodies (santacruz biotechnology, USA) against Mlph, Rab27a, Tyrosinase, MITF, and TRP-1. In addition, a control, a negative control, and a positive control were used in the same manner as in Example 2.

TRP-1 = assay: as above; type: cell-based, mouse; conditions: B16F10, 200 ng/ml α-MSH, peptide 10-200 μM, 72 hours
Method: as §1

tyrosinase [3] = assay: as above; type: cell-based, mouse; conditions: B16F10, 200 ng/ml α-MSH, peptide 10-200 μM, 72 hours
Method: as §1

MITF [4] = assay: Expression of melanin production-associated gene (RT-PCR) in B16F10 cells; type: cell-based, mouse; conditions: B16F10, 200 ng/ml α-MSH, peptide 10-200 μM, 72 hours
Method: (§2) A mouse melanoma cell B16F10 was seeded in a 6-well plate at a density of 5×10^4 cells/well, followed by incubation for 16 hours. Thereafter, the culture medium was replaced by a medium supplemented with 2% serum, and then 200 ng/ml of α-MSH was added thereto, together with each peptide of an amino acid sequence of SEQ ID NO: 1, 2, or 3 at a concentration of 10 μM, 50 μM, 100 μM, or 200 μM, respectively, followed by incubation for 72 hours. mRNAs were extracted from the cultured cells, and the extracted mRNAs were reverse transcribed using a cDNA synthesis kit & PCR pre-mix (Intron, Korea), thereby synthesizing cDNA, respectively. Thereafter, a polymerase chain reaction (PCR) was carried out using each cDNA and Rab27a, Melanophilin (Mlph), myosin VA, MITF, Tyrosinase, and TRP1 primers. Moreover, a control, a negative control, and a positive control were used in the same manner as in Example 2, and nucleotide sequences of the primers used herein are the same as in Table 3 below.

tyrosinase [5] = assay: as above; type: cell-based, mouse; conditions: B16F10, 200 ng/ml α-MSH, peptide 10-200 μM, 72 hours
Method: as §2

Mlph [6] = assay: as above; type: cell-based, mouse; conditions: B16F10, 200 ng/ml α-MSH, peptide 10-200 μM, 72 hours
Method: as §2

[7] = system: mouse melanoma cell B16F10; assay: Inhibitory effect on melanin production in α-MSH-stimulated B16F10 cells; type: cell-based; conditions: B16F10, 200 ng/ml α-MSH, peptide 10, 50, 100 or 200 μM, 72 hours, absorbance at 450 nm
Method: A mouse melanoma cell B16F10 was seeded in a 6-well plate at a density of 5×10^4 cells/well, followed by incubation for 16 hours. Thereafter, the culture medium was replaced by a medium supplemented with 2% serum, and then 200 ng/ml of α-melanocyte-stimulating hormones (α-MSH) was added thereto to stimulate melanin production, together with each peptide of an amino acid sequence of SEQ ID NO: 1, 2, or 3 at a concentration of 10 μM, 50 μM, 100 μM, or 200 μM, respectively, followed by incubation for 72 hours. Thereafter, the incubated cells were dissolved in 1 N NaOH, and absorbance at 450 nm was measured. Moreover, an untreated group (Con) was used as a control, and only an α-MSH-treated group as a negative control and a known skin-whitening agent Arbutin (200 μM, 500 μM) and an α-MSH-treated group as a positive control were used.

Rab27a [8] = assay: Expression of melanin production-associated protein (Western blotting) in B16F10 cells; type: cell-based, mouse; conditions: B16F10, 200 ng/ml α-MSH, peptide 10-200 μM, 72 hours
Method: as §1

Mlph [9] = assay: as above; type: cell-based, mouse; conditions: B16F10, 200 ng/ml α-MSH, peptide 10-200 μM, 72 hours
Method: as §1

TRP1 = assay: Expression of melanin production-associated gene (RT-PCR) in B16F10 cells; type: cell-based, mouse; conditions: B16F10, 200 ng/ml α-MSH, peptide 10-200 μM, 72 hours
Method: as §2

myosin VA = assay: as above; type: cell-based, mouse; conditions: B16F10, 200 ng/ml α-MSH, peptide 10-200 μM, 72 hours
Method: as §2

Rab27a [10] = assay: as above; type: cell-based, mouse; conditions: B16F10, 200 ng/ml α-MSH, peptide 10-200 μM, 72 hours
Method: as §2

Substance	tyrosinase activity (tyrosinase [1])	expression of MITF protein (MITF [2])	expression of TRP-1 protein (TRP-1)	expression of Tyrosinase protein (tyrosinase [3])	expression of MITF gene (MITF [4])	expression of tyrosinase gene (tyrosinase [5])	expression of Mlph gene (Mlph [6])	melanin production [7]	expression of Rab27a protein (Rab27a [8])	expression of Mlph protein (Mlph [9])	expression of TRP1 gene (TRP1)	expression of myosin VA gene (myosin VA)	expression of Rab27a gene (Rab27a [10])
FHFIPNW [SEQ ID NO: 2]	inhibited in a concentration-dependent manner	inhibited	inhibited	inhibited	inhibited	inhibited	inhibited	reduced in a concentration-dependent manner	–	–	–	–	–
LRKRKRRFWVL [SEQ ID NO: 1]	inhibited in a concentration-dependent manner	inhibited	–	inhibited	inhibited	inhibited	–	reduced in a concentration-dependent manner	inhibited	inhibited	inhibited	inhibited	inhibited
WPFLRP [SEQ ID NO: 3]	inhibited in a concentration-dependent manner	inhibited	–	inhibited	inhibited	inhibited	inhibited	reduced in a concentration-dependent manner	inhibited	inhibited	inhibited	inhibited	inhibited
